Experimental data published in ChEMBL document CHEMBL4382202, “1-(2-Hydroxybenzoyl)-thiosemicarbazides are promising antimicrobial agents targeting d-alanine-d-alanine ligase in bacterio” (Eur J Med Chem, 2018).
In brackets after ≈: the same amount, converted by molar mass.

What was measured:
Enterococcus faecalis [1] = assay: Antibacterial activity against vancomycin-resistant Enterococcus faecalis BM 4390 after 18 to 24 hrs by microdilution assay; assay type: functional
Staphylococcus aureus [2] = assay: Antibacterial activity against Staphylococcus aureus ATCC 25923 after 18 to 24 hrs by microdilution assay; assay type: functional
Staphylococcus aureus [3] = assay: Antibacterial activity against community-acquired methicillin and erythromycin resistant Staphylococcus aureus SA 325 after 18 to 24 hrs by microdilution assay; assay type: functional
Enterococcus faecalis [4] = assay: Antibacterial activity against Enterococcus faecalis ATCC 29212 after 18 to 24 hrs by microdilution assay; assay type: functional
Staphylococcus aureus [5] = assay: Antibacterial activity against hospital-acquired methicillin and vacomycin resistant Staphylococcus aureus VRS-1 after 18 to 24 hrs by microdilution assay; assay type: functional
Staphylococcus aureus [6] = assay: Antibacterial activity against methicillin and vancomycin intermediate resistant Staphylococcus aureus MU50 after 18 to 24 hrs by microdilution assay; assay type: functional
Staphylococcus aureus [7] = assay: Antibacterial activity against methicillin and linezolid resistant Staphylococcus aureus NRS 119 clinical isolate after 18 to 24 hrs by microdilution assay; assay type: functional
[8] = target: T1, D-alanine--D-alanine ligase (Enterococcus faecalis (strain ATCC 700802 / V583), UniProt Q47758); assay: Inhibition of Enterococcus faecalis JH2-2 C-terminal 6His-tagged DdlB expressed in Escherichia coli LMG194 preincubated for 30 mins followed by substrate addition and measured after 20 mins by Biomol Green reagent assay
T1 sequence (Q47758 whole entry): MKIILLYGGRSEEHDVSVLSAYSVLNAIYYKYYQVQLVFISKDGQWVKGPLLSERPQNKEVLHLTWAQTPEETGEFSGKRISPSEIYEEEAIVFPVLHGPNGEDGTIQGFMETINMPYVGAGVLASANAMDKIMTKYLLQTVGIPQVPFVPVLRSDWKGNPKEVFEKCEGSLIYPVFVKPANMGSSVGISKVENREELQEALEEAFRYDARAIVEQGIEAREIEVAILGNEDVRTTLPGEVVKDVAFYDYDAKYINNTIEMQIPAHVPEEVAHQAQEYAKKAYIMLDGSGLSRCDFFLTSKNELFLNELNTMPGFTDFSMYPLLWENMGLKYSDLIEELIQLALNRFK

Staphylococcus aureus [9] = assay: Antibacterial activity against hospital-acquired methicillin/ciprofloxacin/moxifloxacin resistant Staphylococcus aureus SA 481 after 18 to 24 hrs by microdilution assay; assay type: functional
Enterococcus faecalis [10] = assay: Antibacterial activity against vancomycin-resistant Enterococcus faecalis JH2-2::C1 after 18 to 24 hrs by microdilution assay; assay type: functional
Enterococcus faecalis [11] = assay: Antibacterial activity against vancomycin-resistant Enterococcus faecalis BM 4575 clinical isolate after 18 to 24 hrs by microdilution assay; assay type: functional
hERG (KCNH2) = hERG (KCNH2) (Homo sapiens, UniProt Q12809); assay: Displacement of [3H]-Dofetilide from recombinant human ERG at 10 uM after 60 mins by scintillation counting analysis relative to control; conditions: probe [3H]-dofetilide
hERG (KCNH2), sequence (Q12809 whole entry): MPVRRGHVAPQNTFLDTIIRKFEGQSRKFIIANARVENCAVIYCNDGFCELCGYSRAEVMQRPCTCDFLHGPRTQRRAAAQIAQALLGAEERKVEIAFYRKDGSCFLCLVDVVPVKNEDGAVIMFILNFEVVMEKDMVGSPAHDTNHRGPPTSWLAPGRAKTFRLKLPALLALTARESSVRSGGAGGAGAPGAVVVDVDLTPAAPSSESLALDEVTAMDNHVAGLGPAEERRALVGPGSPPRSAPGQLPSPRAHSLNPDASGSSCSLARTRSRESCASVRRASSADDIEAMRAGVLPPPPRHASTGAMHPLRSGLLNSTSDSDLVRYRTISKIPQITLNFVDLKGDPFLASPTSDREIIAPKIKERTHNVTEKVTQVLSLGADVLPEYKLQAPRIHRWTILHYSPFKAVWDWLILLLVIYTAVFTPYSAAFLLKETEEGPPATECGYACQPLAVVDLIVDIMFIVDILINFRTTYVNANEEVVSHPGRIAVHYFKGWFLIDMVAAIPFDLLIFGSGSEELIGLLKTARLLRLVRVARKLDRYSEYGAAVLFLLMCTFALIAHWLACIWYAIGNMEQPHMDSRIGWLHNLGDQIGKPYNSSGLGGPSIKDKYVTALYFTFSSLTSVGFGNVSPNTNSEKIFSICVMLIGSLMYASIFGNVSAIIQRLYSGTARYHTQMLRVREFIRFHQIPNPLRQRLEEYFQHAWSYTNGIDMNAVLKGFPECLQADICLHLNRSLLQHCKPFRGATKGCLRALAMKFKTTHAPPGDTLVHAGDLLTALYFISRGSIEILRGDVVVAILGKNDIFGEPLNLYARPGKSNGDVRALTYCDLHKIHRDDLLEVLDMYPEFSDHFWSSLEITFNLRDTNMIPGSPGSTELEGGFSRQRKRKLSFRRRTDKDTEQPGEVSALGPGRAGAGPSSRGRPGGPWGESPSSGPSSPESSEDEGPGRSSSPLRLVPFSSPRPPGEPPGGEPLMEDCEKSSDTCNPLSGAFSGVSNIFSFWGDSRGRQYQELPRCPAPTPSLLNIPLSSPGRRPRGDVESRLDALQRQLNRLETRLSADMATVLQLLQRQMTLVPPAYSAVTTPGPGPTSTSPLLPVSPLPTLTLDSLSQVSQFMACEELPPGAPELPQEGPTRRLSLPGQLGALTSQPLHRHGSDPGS

[12] = target: T2, MAO-A (amine oxidase [flavin-containing] A) (Homo sapiens, UniProt P21397); assay: Inhibition of human MAOA at 10 uM using kynuramine as substrate after 20 mins by spectrophotometric analysis relative to control; conditions: probe kynuramine
T2 sequence (P21397 whole entry): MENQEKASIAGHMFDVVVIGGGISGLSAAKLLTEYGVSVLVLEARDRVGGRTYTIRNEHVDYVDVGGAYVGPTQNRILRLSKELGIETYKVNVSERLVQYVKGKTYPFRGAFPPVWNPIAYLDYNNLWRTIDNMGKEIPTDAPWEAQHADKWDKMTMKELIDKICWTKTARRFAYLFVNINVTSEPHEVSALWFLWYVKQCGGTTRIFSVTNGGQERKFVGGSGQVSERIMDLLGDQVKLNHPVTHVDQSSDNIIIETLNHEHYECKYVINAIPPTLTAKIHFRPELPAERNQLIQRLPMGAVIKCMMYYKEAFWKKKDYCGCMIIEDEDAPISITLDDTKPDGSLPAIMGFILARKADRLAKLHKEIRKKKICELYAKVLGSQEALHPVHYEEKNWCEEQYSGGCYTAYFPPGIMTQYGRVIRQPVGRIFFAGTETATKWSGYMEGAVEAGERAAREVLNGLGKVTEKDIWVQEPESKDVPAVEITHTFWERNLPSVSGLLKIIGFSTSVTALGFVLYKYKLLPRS

[13] = target: Voltage-gated inwardly rectifying potassium channel KCNH2 (Homo sapiens, UniProt Q12809); assay: Displacement of [3H]-Dofetilide from recombinant human ERG after 60 mins by scintillation counting analysis
Voltage-gated inwardly rectifying potassium channel KCNH2, sequence (Q12809 whole entry): as the sequence (Q12809 whole entry) above

THP-1 = assay: Cytotoxicity against human THP1 cells assessed as decrease in cell viability at 1 to 5 times MIC after 24 hrs by trypan blue exclusion assay relative to control; assay type: cell-based; conditions: thp-1, 24 h
[14] = target: Secretory phospholipase A2; assay: Inhibition of human sPLA2; assay type: protein assay
Staphylococcus aureus [15] = assay: Bactericidal activity against Staphylococcus aureus ATCC 25923 assessed as bacterial cell killing level at 0.1 mM after 24 hrs by time kill assay; assay type: functional
[16] = Inhibition of Bacillus cereus beta-lactamase using nitrocefin as substrate preincubated for 15 mins followed by substrate addition and measured after 60 mins by spectrophotometric analysis
[17] = target: T1, D-alanine--D-alanine ligase; assay: Inhibition of Enterococcus faecalis Ddl
[18] = Inhibition of 6His-tagged Staphylococcus aureus Ddl expressed in Escherichia coli M15 (pREP4) using ATP or d-alanine as substrate after 20 mins
[19] = Inhibition of full-length 6His-tagged Mycobacterium tuberculosis H37Rv Ddl expressed in Escherichia coli BL21(DE3)pLysS by UV-Vis spectrophotometric analysis
[20] = system: Mycobacterium tuberculosis; assay: Antitubercular activity against Mycobacterium tuberculosis H37Rv; assay type: functional

O=C(NNC(=S)Nc1ccc(OC(F)(F)F)cc1)c1ccccc1O
MIC (Enterococcus faecalis [1]): > 100 µM | MIC (Staphylococcus aureus [2]): 25 µM (≈ 9.28 µg/mL) | MIC (Staphylococcus aureus [3]): 100 µM (≈ 37.1 µg/mL) | MIC (Enterococcus faecalis [4]): 50 µM (≈ 18.6 µg/mL) | MIC (Staphylococcus aureus [5]): > 100 µM | MIC (Staphylococcus aureus [6]): > 100 µM | MIC (Staphylococcus aureus [7]): 100 µM (≈ 37.1 µg/mL) | IC50 [8]: 700 nM | MIC (Staphylococcus aureus [9]): > 100 µM | MIC (Enterococcus faecalis [10]): 100 µM (≈ 37.1 µg/mL) | MIC (Enterococcus faecalis [11]): > 100 µM

O=C(NNC(=S)Nc1ccc(Cl)c(Cl)c1)c1cc2ccccc2cc1O
MIC (Enterococcus faecalis [1]): > 100 µM | MIC (Staphylococcus aureus [2]): > 100 µM | MIC (Staphylococcus aureus [3]): > 100 µM | MIC (Enterococcus faecalis [4]): > 400 µM | MIC (Staphylococcus aureus [5]): > 100 µM | MIC (Staphylococcus aureus [6]): > 100 µM | MIC (Staphylococcus aureus [7]): > 100 µM | IC50 [8]: 560 nM | MIC (Staphylococcus aureus [9]): > 100 µM | MIC (Enterococcus faecalis [10]): > 100 µM | MIC (Enterococcus faecalis [11]): > 100 µM

Nc1ccc(C(=O)NNC(=S)Nc2ccc(Cl)c(Cl)c2)c(O)c1
MIC (Enterococcus faecalis [1]): > 100 µM | MIC (Staphylococcus aureus [2]): > 100 µM | MIC (Staphylococcus aureus [3]): > 100 µM | MIC (Enterococcus faecalis [4]): > 400 µM | MIC (Staphylococcus aureus [5]): > 100 µM | MIC (Staphylococcus aureus [6]): > 100 µM | MIC (Staphylococcus aureus [7]): > 100 µM | IC50 [8]: 990 nM | MIC (Staphylococcus aureus [9]): > 100 µM | MIC (Enterococcus faecalis [10]): > 100 µM | MIC (Enterococcus faecalis [11]): > 100 µM

O=C(NNC(=S)Nc1ccc(Cl)c(Cl)c1)c1ccc(I)cc1O
MIC (Enterococcus faecalis [1]): > 100 µM | MIC (Staphylococcus aureus [2]): 100 µM (≈ 48.2 µg/mL) | MIC (Staphylococcus aureus [3]): > 100 µM | MIC (Enterococcus faecalis [4]): > 400 µM | MIC (Staphylococcus aureus [5]): > 100 µM | MIC (Staphylococcus aureus [6]): > 100 µM | MIC (Staphylococcus aureus [7]): > 100 µM | IC50 [8]: 930 nM | MIC (Staphylococcus aureus [9]): > 100 µM | MIC (Enterococcus faecalis [10]): > 100 µM | MIC (Enterococcus faecalis [11]): > 100 µM

O=C(NNC(=S)Nc1ccc(OCc2ccccc2)cc1)c1ccccc1O
MIC (Enterococcus faecalis [1]): > 100 µM | MIC (Staphylococcus aureus [2]): 100 µM (≈ 39.3 µg/mL) | MIC (Staphylococcus aureus [3]): > 100 µM | MIC (Enterococcus faecalis [4]): > 400 µM | MIC (Staphylococcus aureus [5]): > 100 µM | MIC (Staphylococcus aureus [6]): > 100 µM | MIC (Staphylococcus aureus [7]): > 100 µM | IC50 [8]: 990 nM | MIC (Staphylococcus aureus [9]): > 100 µM | MIC (Enterococcus faecalis [10]): > 100 µM | MIC (Enterococcus faecalis [11]): > 100 µM

O=C(NNC(=S)Nc1ccc(Cl)c(Cl)c1)c1ccccc1O
MIC (Enterococcus faecalis [1]): 50 µM (≈ 17.8 µg/mL) | inhibition at 1 h, 10 µM (hERG (KCNH2)): ≤ 30% | MIC (Staphylococcus aureus [2]): 100 µM (≈ 35.6 µg/mL) | MIC (Staphylococcus aureus [3]): 50 µM (≈ 17.8 µg/mL) | MIC (Enterococcus faecalis [4]): 50 µM (≈ 17.8 µg/mL) | inhibition at 20 min, 10 µM [12]: ≤ 30% | MIC (Staphylococcus aureus [5]): 50 µM (≈ 17.8 µg/mL) | IC50 [13]: 80 nM | MIC (Staphylococcus aureus [6]): 100 µM (≈ 35.6 µg/mL) | Activity (THP-1): 12 to 25% | MIC (Staphylococcus aureus [7]): 50 µM (≈ 17.8 µg/mL) | IC50 [14]: 20000 nM | IC50 [8]: 1540 nM | MIC (Staphylococcus aureus [9]): 100 µM (≈ 35.6 µg/mL) | Activity (Staphylococcus aureus [15]): 99% | MIC (Enterococcus faecalis [10]): 100 µM (≈ 35.6 µg/mL) | MIC (Enterococcus faecalis [11]): 50 µM (≈ 17.8 µg/mL) | IC50 [16]: 11 nM

CC(=O)c1ccc(NC(=S)NNC(=O)c2ccccc2O)cc1
MIC (Enterococcus faecalis [1]): > 100 µM | MIC (Staphylococcus aureus [2]): 25 µM (≈ 8.23 µg/mL) | MIC (Staphylococcus aureus [3]): > 100 µM | MIC (Enterococcus faecalis [4]): 50 µM (≈ 16.5 µg/mL) | MIC (Staphylococcus aureus [5]): > 100 µM | MIC (Staphylococcus aureus [6]): > 100 µM | MIC (Staphylococcus aureus [7]): > 100 µM | IC50 [8]: 370 nM | MIC (Staphylococcus aureus [9]): > 100 µM | MIC (Enterococcus faecalis [10]): > 100 µM | MIC (Enterococcus faecalis [11]): > 100 µM

CCOC(=O)c1cc(Br)c2nc(-c3cccc(CN)c3)oc2c1
IC50 [17]: 432000 nM

CC(C)(CCl)C(=O)Nc1ccc(C(F)(F)F)cc1
Ki [18]: 4000 nM

N[C@@H]1CONC1=O [CYCLOSERINE]
MIC (Staphylococcus aureus [2]): 313 µM (≈ 32 µg/mL) | MIC (Enterococcus faecalis [4]): 1250 µM (≈ 128 µg/mL) | Ki [19]: 25000 nM | MIC [20]: 50 µg/mL (≈ 490 µM)
